# Experiments:
# Format in all cases: in vivo
# [1] = tested on: wheat (Triticum aestivum); assay: Test A postemergence application, visual injury rating 0-100; conditions: Postemergence
# Text: (§1) Seeds of plant species selected from barnyardgrass (Echinochloa crus-galli), blackgrass (Alopecurus myosuroides), corn (Zea mays), foxtail, giant (giant foxtail, Setaria faberi), green foxtail (Setaria viridis), goosegrass (Eleusine indica), kochia (Bassia scoparia), oat, wild (wild oat, Avena fatua), palmer (palmer amaranth, palmer pigweed, Amaranthus palmeri), ragweed (common ragweed, Ambrosia artemisiifolia), ryegrass, Italian (italian ryegrass, Lolium multiflorum), soybean (Glycine max) and wheat (Triticum aestivum) were planted into a blend of loam soil and sand and treated preemergence with a directed soil spray using test chemicals formulated in a non-phytotoxic solvent mixture which included a surfactant.
# (§2) At the same time, plants selected from these crops and weed species and also galium (catchweed bedstraw, Galium aparine) and horseweed (Erigeron canadensis) were planted in pots containing the same blend of loam soil and sand and treated with postemergence applications of test chemicals formulated in the same manner. Plants ranged in height from 2 to 10 cm and were in the one- to two-leaf stage for the postemergence treatment. Treated plants and untreated controls were maintained in a greenhouse for 10 days, after which time all treated plants were compared to untreated controls and visually evaluated for injury. Plant response ratings, summarized in Table A, are based on a 0 to 100 scale where 0 is no effect and 100 is complete control. A dash (-) response means no test result.
# [2] = tested on: barnyardgrass (Echinochloa crus-galli); assay: as above; conditions: Postemergence
# Text: as §1, §2
# [3] = tested on: oat, wild (wild oat, Avena fatua); assay: as above; conditions: Postemergence
# Text: as §1, §2
# [4] = tested on: ryegrass, Italian (italian ryegrass, Lolium multiflorum); assay: as above; conditions: Postemergence
# Text: as §1, §2
# [5] = tested on: kochia (Bassia scoparia); assay: as above; conditions: Postemergence
# Text: as §1, §2
# [6] = tested on: ragweed (common ragweed, Ambrosia artemisiifolia); assay: as above; conditions: Postemergence
# Text: as §1, §2
# [7] = tested on: blackgrass (Alopecurus myosuroides); assay: as above; conditions: Postemergence
# Text: as §1, §2
# [8] = tested on: corn (Zea mays); assay: as above; conditions: Postemergence
# Text: as §1, §2
# [9] = tested on: galium (catchweed bedstraw, Galium aparine); assay: as above; conditions: Postemergence
# Text: as §1, §2
# [10] = tested on: palmer (palmer amaranth, palmer pigweed, Amaranthus palmeri); assay: as above; conditions: Postemergence
# Text: as §1, §2
# [11] = tested on: soybean (Glycine max); assay: as above; conditions: Postemergence
# Text: as §1, §2
# [12] = tested on: horseweed (Erigeron canadensis); assay: as above; conditions: Postemergence
# Text: as §1, §2
# [13] = tested on: wheat (Triticum aestivum); assay: Test A preemergence soil spray, visual injury rating 0-100; conditions: 10 days, 0 = no effect, 100 = complete control
# Text: as §1, §2
# [14] = tested on: barnyardgrass (Echinochloa crus-galli); assay: as above; conditions: 10 days, 0 = no effect, 100 = complete control
# Text: as §1, §2
# [15] = tested on: oat, wild (wild oat, Avena fatua); assay: as above; conditions: 10 days, 0 = no effect, 100 = complete control
# Text: as §1, §2
# [16] = tested on: ryegrass, Italian (italian ryegrass, Lolium multiflorum); assay: as above; conditions: 10 days, 0 = no effect, 100 = complete control
# Text: as §1, §2
# [17] = tested on: kochia (Bassia scoparia); assay: as above; conditions: 10 days, 0 = no effect, 100 = complete control
# Text: as §1, §2
# [18] = tested on: ragweed (common ragweed, Ambrosia artemisiifolia); assay: as above; conditions: 10 days, 0 = no effect, 100 = complete control
# Text: as §1, §2
# [19] = tested on: blackgrass (Alopecurus myosuroides); assay: as above; conditions: 10 days, 0 = no effect, 100 = complete control
# Text: as §1, §2
# [20] = tested on: corn (Zea mays); assay: as above; conditions: 10 days, 0 = no effect, 100 = complete control
# Text: as §1, §2
# [21] = tested on: palmer (palmer amaranth, palmer pigweed, Amaranthus palmeri); assay: as above; conditions: 10 days, 0 = no effect, 100 = complete control
# Text: as §1, §2
# [22] = tested on: soybean (Glycine max); assay: as above; conditions: 10 days, 0 = no effect, 100 = complete control
# Text: as §1, §2
# [23] = 31 g ai/ha, greenhouse 10 days, 0 no effect, 100 complete control
# [24] = 125 g ai/ha, 10 days, 0 is no effect, 100 is complete control
smiles,measurement,setting,value
CCCS(=O)(=O)OC(=O)C1C=CC(NC(=O)C2(C)CN(c3cc(Cl)cc(Cl)c3)C(=O)O2)C1 (mixture of isomers) [Compound 79],Wheat plant response rating (0 to 100 scale),[1]; [23],80
same,Wheat plant response rating (0 to 100 scale),[1]; [24],90
same,Barnyardgrass plant response rating (0 to 100 scale),[2]; [23],90
same,Barnyardgrass plant response rating (0 to 100 scale),[2]; [24],90
same,"Oat, Wild plant response rating (0 to 100 scale)",[3]; [23],90
same,"Oat, Wild plant response rating (0 to 100 scale)",[3]; [24],90
same,"Ryegrass, Italian plant response rating (0 to 100 scale)",[4]; [23],50
same,"Ryegrass, Italian plant response rating (0 to 100 scale)",[4]; [24],60
same,Kochia plant response rating (0 to 100 scale),[5]; [23],70
same,Kochia plant response rating (0 to 100 scale),[5]; [24],80
same,Ragweed plant response rating (0 to 100 scale),[6]; [23],50
same,Ragweed plant response rating (0 to 100 scale),[6]; [24],60
same,Blackgrass plant response rating (0 to 100 scale),[7]; [23],60
same,Blackgrass plant response rating (0 to 100 scale),[7]; [24],90
same,Corn plant response rating (0 to 100 scale),[8]; [23],90
same,Corn plant response rating (0 to 100 scale),[8]; [24],100
same,Galium plant response rating (0 to 100 scale),[9]; [23],80
same,Galium plant response rating (0 to 100 scale),[9]; [24],80
same,"Amaranth, Palmer / Pigweed, Palmer plant response rating (0 to 100 scale)",[10]; [23],70
same,"Amaranth, Palmer / Pigweed, Palmer plant response rating (0 to 100 scale)",[10]; [24],90
same,Soybean plant response rating (0 to 100 scale),[11]; [23],40
same,Soybean plant response rating (0 to 100 scale),[11]; [24],90
same,Horseweed plant response rating (0 to 100 scale),[12]; [23],40
same,Horseweed plant response rating (0 to 100 scale),[12]; [24],70
same,Wheat plant response rating (0-100),[13]; 31 g ai/ha,10
same,Wheat plant response rating (0 to 100 scale),[13]; 125 g ai/ha,80
same,Barnyardgrass plant response rating (0-100),[14]; 31 g ai/ha,30
same,Barnyardgrass plant response rating (0 to 100 scale),[14]; 125 g ai/ha,90
same,"Oat, Wild plant response rating (0-100)",[15]; 31 g ai/ha,20
same,"Oat, Wild plant response rating (0 to 100 scale)",[15]; 125 g ai/ha,30
same,"Ryegrass, Italian plant response rating (0-100)",[16]; 31 g ai/ha,20
same,"Ryegrass, Italian plant response rating (0 to 100 scale)",[16]; 125 g ai/ha,80
same,Kochia plant response rating (0-100),[17]; 31 g ai/ha,30
same,Kochia plant response rating (0 to 100 scale),[17]; 125 g ai/ha,70
same,Ragweed plant response rating (0-100),[18]; 31 g ai/ha,0
same,Ragweed plant response rating (0 to 100 scale),[18]; 125 g ai/ha,20
same,Blackgrass plant response rating (0-100),[19]; 31 g ai/ha,10
same,Blackgrass plant response rating (0 to 100 scale),[19]; 125 g ai/ha,30
same,Corn plant response rating (0-100),[20]; 31 g ai/ha,0
same,Corn plant response rating (0 to 100 scale),[20]; 125 g ai/ha,30
same,"Amaranth, Palmer plant response rating (0-100)",[21]; 31 g ai/ha,80
same,"Amaranth, Palmer plant response rating (0 to 100 scale)",[21]; 125 g ai/ha,90
same,Soybean plant response rating (0-100),[22]; 31 g ai/ha,0
same,Soybean plant response rating (0 to 100 scale),[22]; 125 g ai/ha,70

# Reference: patent US20260285850A1, “SUBSTITUTED OXAZOLIDINONES AND IMIDAZOLINONES AS HERBICIDES” (FMC CORPORATION, priority 2023, published 2026)
